# Patent publication US20240398822A1, “METHODS AND COMPOSITIONS FOR TREATING AND MANAGING ALZHEIMER'S DISEASE” (Pharmatrophix, Inc., priority 2021, published 2024)
# Entries after “also recorded” stand apart in the source; their conditions may differ.
# Experiments:
# Format in all cases: in vivo, human
# Aβ42, Aβ40 = assay: Phase IIa CSF AD core biomarkers Aβ42 and Aβ40
# From the text: (§1) CSF samples were obtained at screening Visit and final Visit via lumbar puncture to determine levels of tau, p-tau, Aβ40, Aβ42 and AChE activity as an initial set of CSF biomarkers. Aliquots of CSF were made available for emerging CSF biomarker methods such as measurement of additional biomarkers including neurofilaments light chain, neurogranin, SNAP-25, synaptotagmin, YKL-40, TREM2, tau oligomers and for measurement of drug level in selected patients based on the time period between last dose of drug and CSF sampling (FIG. 25 and FIG. 58).
# (§2) Baseline CSF samples are obtained prior to administration via lumbar puncture. These samples are used to determine levels of tau, p-tau, Aβ40, Aβ42, AChE, neurofilament light chain, SNAP-25, synaptotagmin-1, neurogranin, sTREM, and YKL-40. Aliquots of CSF are also made available for emerging CSF biomarker methods such as measurement of tau oligomers and for measurement of drug level in selected patients based on time period between last dose of the salt of Formula (II) and CSF sampling. […] Many of these biomarkers can also be measured in blood or plasma. The change in values over the time period from pre-treatment to post-treatment are of particular importance. […] Absolute levels at single time points of neurofilament light chain, SNAP-25, synaptotagmin-1, neurogranin, sTREM, and YKL-40 in CSF or blood or plasma are of less value given differences in assay techniques and wide variation in absolute levels within normal subjects and within and across AD subjects. In contrast, absolute levels of Aβ42 and 40 at baseline are useful biomarkers indicating the presence of amyloid pathology as low levels of Aβ42 and 40 at a given time point are consistent with amyloid pathology.
# SNAP-25 = assay: Phase IIa CSF pre-synaptic biomarker SNAP-25
# From the text: as §1, §2
# sTREM2 = assay: Phase IIa CSF glial biomarker sTREM2
# From the text: as §1
# Baseline CSF samples are obtained prior to administration via lumbar puncture. These samples are used to determine levels of tau, p-tau, Aβ40, Aβ42, AChE, neurofilament light chain, SNAP-25, synaptotagmin-1, neurogranin, sTREM, and YKL-40. Aliquots of CSF are also made available for emerging CSF biomarker methods such as measurement of tau oligomers and for measurement of drug level in selected patients based on time period between last dose of the salt of Formula (II) and CSF sampling. […] Many of these biomarkers can also be measured in blood or plasma. The change in values over the time period from pre-treatment to post-treatment are of particular importance. […]
# [1] = tested on: patients with mild to moderate Alzheimer's disease; assay: Phase IIa safety and tolerability (adverse events, vital signs, ECG, MRI, laboratory); settings: for subjects who discontinued the phase 2a trial due to AEs or SAEs: of 16 subjects in total; for course of the increase in eosinophil level: also where treatment was continued; for overall safety and tolerability: phase IIa
# From the text: Safety monitoring included the full extent of phase 2 clinical and laboratory testing.
# For all safety evaluations, only an overall ‘Safety’ population is described. This includes all patients who received at least one dose of medication and consider all patients according to the treatment they actually receive. Additionally, a PK population will be described for only patients receiving active study IMP.
# [2] = 200 mg bid (N = 78), 26 weeks, safety population
# [3] = 200 mg bid (N = 78), 26 weeks, safety population, listed as LM11A
# [4] = 200 mg bid (N = 78), 26 weeks, safety population, listed as LM11A-31
# [5] = 400 mg bid (N = 83), 26 weeks, safety population
# [6] = 400 mg bid (N = 83), 26 weeks, safety population, listed as LM11A
# [7] = 400 mg bid (N = 83), 26 weeks, safety population, listed as LM11A-31
smiles,measurement,setting,value
"CC[C@H](C)[C@H](N)C(=O)NCCN1CCOCC1 [LM11A-31-BHS, Tris[(2S,3S)-2-amino-3-methyl-N-(2-morpholinoethyl)pentanamide] tetra(monohydrogensulfate), monosulfate]",CSF Ab 42 change in the drug group,"Aβ42, Aβ40; combined drug group, 26 weeks, p=0.003",went down by a significant amount
same,"CSF Ab 42, difference between placebo and drug","Aβ42, Aβ40; combined drug group, p=0.03",significant
same,effect on levels of Aβ42 and 40,"Aβ42, Aβ40; daily treatment, CSF",ability to lower levels of Aβ42 and 40
same,"CSF SNAP-25, drug dose analysis","SNAP-25; 200 and 400 mg doses, post hoc Dunn's test does not reach significance",significant main effect of drug dose
same,"drug effect in slowing or inhibiting the SNAP-25 increase, younger (<72 years) versus older (>=72 years)","SNAP-25; annual percent change (APC), 6-month trial period",greater than that found in the older group
same,CSF SNAP-25 change in the drug group,"SNAP-25; combined drug group, 6 months, drug effect p=0.01",no increase was detected
same,"CSF sTREM2, drug dose analysis",sTREM2; 200 and 400 mg doses,nominal reduction at the 200 and 400 mg doses
same,"CSF sTREM2, drug effect","sTREM2; combined drug group, 6-month period",no drug effect was detected
same,patients discontinued because of AEs,"[1]; 200 mg bd, safety population",2 patients
same,patients discontinued because of serious AE,"[1]; 200 mg bd, safety population",0 patients
same,"AEs Leading To Discontinuation of Study IMP, % of patients",[1]; [2],6.4%
same,"AEs Leading To Discontinuation of Study IMP, freq (events)",[1]; [2],5
same,"AEs Leading To Discontinuation of Study IMP, n (patients)",[1]; [2],5
same,"Adverse events, Drug Relationship: Not Related, % of patients",[1]; [2],52.6%
same,"Adverse events, Drug Relationship: Not Related, freq (events)",[1]; [2],85
same,"Adverse events, Drug Relationship: Not Related, n (patients)",[1]; [2],41
same,"Adverse events, Drug Relationship: Related, freq (events)",[1]; [2],15
same,"Adverse events, Drug Relationship: Related, n (patients)",[1]; [2],12
same,"Adverse events, Intensity: Mild, freq (events)",[1]; [2],86
same,"Adverse events, Intensity: Mild, n (patients)",[1]; [2],40
same,"Adverse events, Intensity: Moderate, freq (events)",[1]; [2],12
same,"Adverse events, Intensity: Moderate, n (patients)",[1]; [2],11
same,"Adverse events, Intensity: Severe, freq (events)",[1]; [2],2
same,"Adverse events, Intensity: Severe, n (patients)",[1]; [2],2
same,"All Adverse Events, % of patients",[1]; [2],60.3%
same,"All Adverse Events, freq (events)",[1]; [2],109
same,"All Adverse Events, n (patients)",[1]; [2],47
same,"Serious AEs, % of patients",[1]; [2],2.6%
same,"Serious AEs, freq (events)",[1]; [2],2
same,"Serious AEs, n (patients)",[1]; [2],2
same,"Treatment Emergent Adverse Events (TEAEs), % of patients",[1]; [2],59.0%
same,"Treatment Emergent Adverse Events (TEAEs), freq (events)",[1]; [2],100
same,"Treatment Emergent Adverse Events (TEAEs), n (patients)",[1]; [2],46
same,"Adverse events, Intensity: Severe, % of patients","[1]; 200 mg bid (N = 78), 26 weeks, safety population, listed as LM1 1A-31",6%
same,"Adverse events, Drug Relationship: Related, % of patients",[1]; [3],15.4%
same,"Adverse events, Intensity: Moderate, % of patients",[1]; [3],14.1%
same,"Adverse events, Intensity: Severe, % of patients",[1]; [3],2.6%
same,"Adverse events, Drug Relationship: Related, % of patients",[1]; [4],15%
same,"Adverse events, Intensity: Moderate, % of patients",[1]; [4],14%
same,"Adverse events, Intensity: Severe, % of patients",[1]; [4],3%
same,"Pre-Treatment Signs and Symptoms (PTSS), % of patients",[1]; 200 mg bid group (N = 78),10.3%
same,"Pre-Treatment Signs and Symptoms (PTSS), freq (events)",[1]; 200 mg bid group (N = 78),9
same,"Pre-Treatment Signs and Symptoms (PTSS), n (patients)",[1]; 200 mg bid group (N = 78),8
same,share of the 10 severe TEAEs,[1]; 200 mg group,20%
same,subjects with GI side effects (diarrhea in most cases),[1]; 200 mg group,approximately 8%
same,subjects who discontinued the phase 2a trial due to AEs or SAEs,[1]; 200 mg group,2 subjects
same,patients discontinued because of AEs,"[1]; 400 mg bd, safety population",8 patients
same,patients discontinued because of serious AE,"[1]; 400 mg bd, safety population",3 patients
same,"AEs Leading To Discontinuation of Study IMP, % of patients",[1]; [5],18.1%
same,"AEs Leading To Discontinuation of Study IMP, freq (events)",[1]; [5],20
same,"AEs Leading To Discontinuation of Study IMP, n (patients)",[1]; [5],15
same,"Adverse events, Drug Relationship: Not Related, % of patients",[1]; [5],57.8%
same,"Adverse events, Drug Relationship: Not Related, freq (events)",[1]; [5],150
same,"Adverse events, Drug Relationship: Not Related, n (patients)",[1]; [5],48
same,"Adverse events, Drug Relationship: Related, freq (events)",[1]; [5],23
same,"Adverse events, Drug Relationship: Related, n (patients)",[1]; [5],13
same,"Adverse events, Intensity: Mild, freq (events)",[1]; [5],119
same,"Adverse events, Intensity: Mild, n (patients)",[1]; [5],46
same,"Adverse events, Intensity: Moderate, freq (events)",[1]; [5],49
same,"Adverse events, Intensity: Moderate, n (patients)",[1]; [5],24
same,"Adverse events, Intensity: Severe, freq (events)",[1]; [5],5
same,"Adverse events, Intensity: Severe, n (patients)",[1]; [5],5
same,"All Adverse Events, % of patients",[1]; [5],66.3%
same,"All Adverse Events, freq (events)",[1]; [5],185
same,"All Adverse Events, n (patients)",[1]; [5],55
same,"Serious AEs, % of patients",[1]; [5],8.4%
same,"Serious AEs, freq (events)",[1]; [5],7
same,"Serious AEs, n (patients)",[1]; [5],7
same,"Treatment Emergent Adverse Events (TEAEs), % of patients",[1]; [5],65.1%
same,"Treatment Emergent Adverse Events (TEAEs), freq (events)",[1]; [5],173
same,"Treatment Emergent Adverse Events (TEAEs), n (patients)",[1]; [5],54
same,"Adverse events, Drug Relationship: Related, % of patients",[1]; [6],15.7%
same,"Adverse events, Intensity: Moderate, % of patients",[1]; [6],28.9%
same,"Adverse events, Intensity: Severe, % of patients",[1]; [6],6.0%
same,"Adverse events, Drug Relationship: Related, % of patients",[1]; [7],15%
same,"Adverse events, Intensity: Moderate, % of patients",[1]; [7],29%
same,"Pre-Treatment Signs and Symptoms (PTSS), % of patients",[1]; 400 mg bid group (N = 83),9.6%
same,"Pre-Treatment Signs and Symptoms (PTSS), freq (events)",[1]; 400 mg bid group (N = 83),12
same,"Pre-Treatment Signs and Symptoms (PTSS), n (patients)",[1]; 400 mg bid group (N = 83),8
same,share of the 10 severe TEAEs,[1]; 400 mg group,50%
same,subjects with GI side effects (diarrhea in most cases),[1]; 400 mg group,approximately 35%
same,subjects who discontinued the phase 2a trial due to AEs or SAEs,[1]; 400 mg group,11 subjects
same,subjects receiving treatment with eosinophilia reported as an adverse event,[1]; 200 and 400 mg groups together,10 subjects
same,"adverse events, drug groups compared with placebo",[1]; AEs otherwise similar between placebo and drug groups,"higher rates in the drug group of nasopharyngitis, GI symptoms including diarrhea and transient, asymptomatic blood eosinophilia"
same,course of the increase in eosinophil level,[1],declined to normal levels
same,course of the increase in eosinophil level,[1]; listed as salt of Formula (II),transient
same,life-threatening (Grade 4) adverse events,"[1]; any group, 26 weeks",no life-threatening (Grade 4) adverse events
same,heart rate and body temperature,[1]; during the visits,no clinically significant changes
same,"rate of several adverse events, 400 mg versus 200 mg",[1]; for some events statistically significant,higher for the 400 mg group
same,MRI-based safety analysis,[1]; in vivo,no drug related adverse outcomes including hemorrhage or edema; also recorded: no events that raised any concern about the drug safety
same,safety laboratory and urine analysis,[1]; in vivo,did not show any patterns of concern
same,overall safety and tolerability,[1]; 26 weeks,no results raised any concerns about the safety
same,overall safety and tolerability,"[1]; 26 weeks, listed as salt of Formula (II)",no serious adverse events occurred that raised concerns about the tolerability of the drug
same,12-lead ECG,[1]; safety population,no relevant changes; also recorded: No significant changes
same,blood pressure,[1]; safety population,no relevant changes; also recorded: No significant changes
same,vital signs,[1]; safety population,no relevant changes; also recorded: No significant changes
same,highest eosinophil level reached,[1]; treatment group,≤ 5000 per μl
same,subjects with eosinophil counts transiently above 500 per μl,[1]; verum group,73 subjects
same,subjects with increased eosinophil value considered clinically significant,[1]; week 4,11 subjects
